Data: US11492597B2, “Method for establishing colorectal cancer HK2 reporter gene cell line” (Guangdong Medical University, priority 2018, dated 2022)

Assays:
HK2 = assay: 2-MeOE2 treatment of HK2 reporter cell line, transcriptional level of HK2; assay type: cell-based; conditions: HK2 cell line treated for 24 h or 48 h, 10 uM, relative transcriptional level vs untreated control
Experimental: (§1) 2-Methoxyestradiol (2-MeOE2) is an HIF inhibitor, and at present, has entered an anti-tumor clinical second-stage test stage. […] The HK2 cell line is treated for 24 h or 48 h in 2-MeOE2 (10 uM), and the relative expression changes of the transcriptional level of HK2 and EGFP and those untreated as a control are analyzed. […] The experimental result further proves that the colorectal cancer HK2 reporter gene cell line constructed in the present invention can be used for screening and evaluating related anticancer drugs.

EGFP = assay: 2-MeOE2 treatment of HK2 reporter cell line, transcriptional level of EGFP reporter; assay type: cell-based; conditions: HK2 cell line treated for 24 h or 48 h, 10 uM, relative transcriptional level vs untreated control
Experimental: as §1

SMILES: COc1cc2c(cc1O)CC[C@@H]1[C@@H]2CC[C@]2(C)[C@@H](O)CC[C@@H]12 [2-MeOE2, 2-Methoxyestradiol]
- expression level of HK2 (HK2): obviously inhibited
- expression of the EGFP (EGFP): synergistically inhibited
